Experimental data from ChEMBL document CHEMBL4651402, “Screening of ~5500 FDA-approved drugs and clinical candidates for anti-SARS-CoV-2 activity” (2021).
Structures can show the parent of a compound that is named as a salt. Square brackets hold non-standard residues; d marks the D form. Peptide text beside a SMILES is read from it. pGlu = O=C1CC[C@@H](C(=O)O)N1; Thz = O=C(O)[C@@H]1CSCN1

Test system: SARS-CoV-2
Assay: microbe, parasite or virus in culture
Conditions: Severe acute respiratory syndrome coronavirus 2, Vero C1008, 48 h

SMILES | IC50 [µM] | IC50 (read-out: pIC50 (converted)) [µM]
CCOC(=O)[C@H](C)C[C@@H](C)C(=O)N1c2ccccc2C[C@H]1C(=O)O [PENTOPRIL] | > 20 | > 20
OC[C@H]1O[C@@H](n2cnc3c2N=CNC[C@H]3O)C[C@@H]1O [PENTOSTATIN] | > 20 | > 20
CC(=O)CCCCn1c(=O)c2c(ncn2C)n(C)c1=O [PENTOXIFYLLINE] | > 20 | > 20
C1CCc2nnnn2CC1 [PENTYLENETETRAZOL] | > 20 | > 20
CC(C)CC(=O)N[C@H](C(=O)N[C@H](C(=O)N[C@@H](CC(C)C)[C@@H](O)CC(=O)N[C@@H](C)C(=O)N[C@@H](CC(C)C)[C@@H](O)CC(=O)O)C(C)C)C(C)C [PEPSTATIN] | > 20 | > 20
CCCN1C[C@H](CSC)C[C@@H]2c3cccc4[nH]cc(c34)C[C@H]21 [PERGOLIDE MESYLATE] | > 20 | > 20
C1CCC(C(CC2CCCCN2)C2CCCCC2)CC1 (stereo unspecified) [PERHEXILINE MALEATE] | > 20 | > 20
O=C1[C@H]2CCCC[C@H]2C(=O)N1CCCCN1CCN(c2nsc3ccccc23)CC1 [PEROSPIRONE] | > 20 | > 20
OCCN1CCN(CCCN2c3ccccc3Sc3ccc(Cl)cc32)CC1 [PERPHENAZINE] | > 20 | > 20
OCC(O)C(O)C(O)C(O)C(O)CO (stereo unspecified) [PERSEITOL] | > 20 | > 20
CO[C@H]1[C@H](O)[C@H](O[C@H]2CC[C@@]3(C=O)[C@H](CC[C@@H]4[C@@H]3CC[C@]3(C)[C@@H](C5=CC(=O)OC5)CC[C@]43O)C2)O[C@@H](C)[C@@H]1O [PERUVOSIDE] | > 20 | > 20
NS(=O)(=O)OC[C@@H]1C[C@@H](n2ccc3c(N[C@H]4CCc5ccccc54)ncnc32)C[C@@H]1O [PEVONEDISTAT] | > 20 | > 20
FC(F)(F)c1ccc(CNc2ccc(Cc3c[nH]c4ncc(Cl)cc34)cn2)cn1 [PEXIDARTINIB] | > 20 | > 20
CCCOCCn1c(=O)c(N2CCN(CCO)CC2)nc2cnc(-c3ccc(OC)nc3)cc21 [PF-03049423] | > 20 | > 20
COc1ccc(-c2cc3c(C)nc(N)nc3n([C@H]3CC[C@H](OCCO)CC3)c2=O)cn1 [PF-04691502] | > 20 | > 20
Nc1[nH]ncc1-c1cc(Cl)ccc1Oc1cc(F)c(S(=O)(=O)Nc2cscn2)cc1Cl [PF-05089771] | > 20 | > 20
C=CC(=O)N1C[C@H](COc2nc(Nc3cnn(C)c3)nc3[nH]cc(Cl)c23)[C@@H](OC)C1 [PF-06459988] | > 20 | > 20
CCOc1cccnc1Oc1cncc(-c2ncc(C(=O)N[C@H]3CCOC3)cn2)c1 [PF-06865571] | > 20 | > 20
CNC(=O)c1ccc(C)c(-n2c(C)cc(OCc3ccc(F)cc3F)c(Br)c2=O)c1 [PH-797804] | > 20 | > 20
O=C1C(=O)c2ncccc2-c2cccnc21 [PHANQUONE] | > 20 | > 20
CCOc1ccc(/N=C(\C)Nc2ccc(OCC)cc2)cc1 [PHENACAINE] | > 20 | > 20
NC(=O)NC(=O)Cc1ccccc1 [PHENACEMIDE] | > 20 | > 20
CCOc1ccc(NC(C)=O)cc1 [PHENACETIN] | > 20 | > 20
CCC(=O)C(CC(C)N1CCOCC1)(c1ccccc1)c1ccccc1 (stereo unspecified) [PHENADOXONE] | > 20 | > 20
CC1C2Cc3ccc(O)cc3C1(C)CCN2CCc1ccccc1 (stereo unspecified) [PHENAZOCINE] | > 20 | > 20
Nc1ccc(/N=N/c2ccccc2)c(N)n1 [PHENAZOPYRIDINE] | > 20 | > 20

SMILES | IC50 [µM] | IC50 (read-out: pIC50 (converted)) [µM]
CCN(CC)CCSC(=O)N(c1ccccc1)c1ccccc1 [PHENCARBAMIDE] | > 20 | > 20
c1ccc(C2(N3CCCCC3)CCCCC2)cc1 [PHENCYCLIDINE] | > 20 | > 20
NNCCc1ccccc1 [PHENELZINE] | > 20 | > 20
CC(Oc1ccccc1)C(=O)N[C@@H]1C(=O)N2[C@@H]1SC(C)(C)[C@@H]2C(=O)O (stereo partly specified) [PHENETHICILLIN] | > 20 | > 20
CCC(C(=O)NC(N)=O)c1ccccc1 (stereo unspecified) [PHENETURIDE] | > 20 | > 20
N=C(N)NC(=N)NCCc1ccccc1 [PHENFORMIN] | > 20 | > 20
NCC(CC(=O)O)c1ccccc1 (stereo unspecified) [PHENIBUT] | > 20 | > 20
NC(=O)NNc1ccccc1 [PHENICARBAZIDE] | > 20 | > 20
CN1CCC2=C(C1)C(c1ccccc1)c1ccccc12 (stereo unspecified) [PHENINDAMINE] | > 20 | > 20
O=C1c2ccccc2C(=O)C1c1ccccc1 [PHENINDIONE] | > 20 | > 20
CC(Cc1ccccc1)NN (stereo unspecified) [PHENIPRAZINE] | > 20 | > 20
CN(C)CCC(c1ccccc1)c1ccccn1 (stereo unspecified) [PHENIRAMINE] | > 20 | > 20
CC1NCCOC1c1ccccc1 (stereo unspecified) [PHENMETRAZINE] | > 20 | > 20
CCC1(c2ccccc2)C(=O)NC(=O)NC1=O [PHENOBARBITAL] | > 20 | > 20
O=C1OC(c2ccc(O)cc2)(c2ccc(O)cc2)c2ccccc21 [PHENOLPHTHALEIN] | > 20 | > 20
Oc1ccccc1 [PHENOL] | > 20 | > 20
CCOC(=O)C1(c2ccccc2)CCN(CCC(O)c2ccccc2)CC1 (stereo unspecified) [PHENOPERIDINE] | > 20 | > 20
c1ccc2c(c1)Nc1ccccc1S2 [PHENOTHIAZINE] | > 20 | > 20
NC(=O)OCCCc1ccccc1 [PHENPROBAMATE] | > 20 | > 20
CCC(c1ccccc1)c1c(O)c2ccccc2oc1=O (stereo unspecified) [PHENPROCOUMON] | > 20 | > 20
CN1C(=O)CC(c2ccccc2)C1=O (stereo unspecified) [PHENSUXIMIDE] | > 20 | > 20
CC(C)(N)Cc1ccccc1 [PHENTERMINE] | > 20 | > 20
Cc1ccc(N(CC2=NCCN2)c2cccc(O)c2)cc1 [PHENTOLAMINE] | > 20 | > 20
N=C(N)NC(=N)Nc1ccccc1 [PHENYL BIGUANIDE] | > 20 | > 20
O=C(O)Cc1ccccc1 [PHENYLACETIC ACID] | > 20 | > 20
N[C@@H](Cc1ccccc1)C(=O)O [PHENYLALANINE] | > 20 | > 20

SMILES | IC50 [µM] | IC50 (read-out: pIC50 (converted)) [µM]
O=C(O)CCCc1ccccc1 [PHENYLBUTANOIC ACID] | > 20 | > 20
CCCCC1C(=O)N(c2ccccc2)N(c2ccccc2)C1=O [PHENYLBUTAZONE] | > 20 | > 20
CNC[C@H](O)c1cccc(O)c1 [PHENYLEPHRINE] | > 20 | > 20
OCCc1ccccc1 [PHENYLETHYL ALCOHOL] | > 20 | > 20
CN(C)CCOc1ccccc1Cc1ccccc1 [PHENYLTOLOXAMINE] | > 20 | > 20
OC(CNc1ccccn1)c1ccccc1 (stereo unspecified) [PHENYRAMIDOL] | > 20 | > 20
O=C1NC(=O)C(c2ccccc2)(c2ccccc2)N1 [PHENYTOIN] | > 20 | > 20
CCCCCCCCCCCCCC(=O)O[C@@H]1[C@@H](C)[C@@]2(O)[C@@H](C=C(CO)C[C@]3(O)C(=O)C(C)=C[C@@H]23)[C@@H]2C(C)(C)[C@]12OC(C)=O [PHORBOL MYRISTATE ACETATE] | > 20 | > 20
O=C(O)c1ccccc1C(=O)Nc1ccc(S(=O)(=O)Nc2nccs2)cc1 [PHTHALYLSULFATHIAZOLE] | > 20 | > 20
CNC(=O)Oc1ccc2c(c1)[C@]1(C)CCN(C)[C@@H]1N2C [PHYSOSTIGMINE] | > 20 | > 20
CCCCCCCCCCCCCC[C@@H](O)[C@@H](O)[C@@H](N)CO [PHYTOSPHINGOSINE] | > 20 | > 20
CCCCN1CCC(CNC(=O)c2c3n(c4ccccc24)CCCO3)CC1 [PIBOSEROD] | > 20 | > 20
OC[C@H]1O[C@@H](Oc2cc(O)cc(/C=C/c3ccc(O)cc3)c2)[C@H](O)[C@@H](O)[C@@H]1O [PICEID] | > 20 | > 20
OCc1ccccn1 [PICONOL] | > 20 | > 20
COc1ccc(C(=O)NCc2cccnc2)cc1C(=O)NCc1cccnc1 [PICOTAMIDE] | > 20 | > 20
CS(=O)(=O)N1CCN(Cc2cc3nc(-c4cccc5[nH]ncc45)nc(N4CCOCC4)c3s2)CC1 [PICTILISIB] | > 20 | > 20
O=C1CC[C@@H](C(=O)O)N1 [PIDOLIC ACID] | > 20 | > 20
O=C1CC[C@@H](C(=O)N2CSC[C@H]2C(=O)O)N1 [PIDOTIMOD] ([pGlu]-[Thz]-OH) | > 20 | > 20
CC(C)=CCC/C(C)=C/CC/C(C)=C/CN1CCN(Cc2ccc3c(c2)OCO3)CC1 [PIFARNINE] | > 20 | > 20
CC[C@@H]1C(=O)OC[C@@H]1Cc1cncn1C [PILOCARPINE] | > 20 | > 20
N=C(N)NN [PIMAGEDINE] | > 20 | > 20
O=C(NC[C@H](O)CO)c1ccncc1Nc1ccc(I)cc1F [PIMASERTIB] | > 20 | > 20
CCOC(=O)C1(c2ccccc2)CCN(CCCNc2ccccc2)CC1 [PIMINODINE] | > 20 | > 20
O=C(O)[C@H]1C2CCC(CC2)[C@@H]1Nc1nc(-c2c[nH]c3ncc(F)cc23)ncc1F [PIMODIVIR] | > 20 | > 20
O=c1[nH]c2ccccc2n1C1CCN(CCCC(c2ccc(F)cc2)c2ccc(F)cc2)CC1 [PIMOZIDE] | > 20 | > 20
CC(N/C(=N\C#N)Nc1ccncc1)C(C)(C)C (stereo unspecified) [PINACIDIL ANHYDROUS] | > 20 | > 20
